System: MV-4-11 cells
Experiment: Gene expression microarray analysis (Affymetrix PrimeView) and GSEA
Assay type: cell-based, human
Set-up: RFU PODN (11730768_x_at) / Fold change /veh PODN (11730768_x_at) / RFU LINC00158 (11744669_a_at) / Fold change /veh LINC00158 (11744669_a_at) / RFU DUSP10 (11751237_a_at) / Fold change /veh DUSP10 (11751237_a_at) / RFU ID3 (11757404_x_at) / Fold change /veh ID3 (11757404_x_at) / RFU PLEKHG5 (11737974_s_at) / Fold change /veh PLEKHG5 (11737974_s_at) / RFU LRRC4B (11730491_at) / Fold change /veh LRRC4B (11730491_at) / RFU GIMAP4 (11747438_a_at) / Fold change /veh GIMAP4 (11747438_a_at) / RFU KRT8 (11758183_x_at) / Fold change /veh KRT8 (11758183_x_at) / RFU CNN1 (11734310_a_at) / Fold change /veh CNN1 (11734310_a_at) / RFU VPS37D (11726825_at) / Fold change /veh VPS37D (11726825_at) / RFU C10orf10 (11716522_x_at) / Fold change /veh C10orf10 (11716522_x_at) / RFU KIR2DL2 /// KIR2DL4 /// KIR2DL5A /// KIR2DL5B /// KIR2DS1 /// KIR2DS2 /// KIR2DS3 /// KIR2DS4 /// KIR3DL3 /// KIR3DL3 /// KIR3DS1 (11738374_at) / Fold change /veh KIR2DL2 /// KIR2DL4 /// KIR2DL5A /// KIR2DL5B /// KIR2DS1 /// KIR2DS2 /// KIR2DS3 /// KIR2DS4 /// KIR3DL3 /// KIR3DL3 /// KIR3DS1 (11738374_at) / RFU C1QL1 (11718748_at) / Fold change /veh C1QL1 (11718748_at) / RFU TMPRSS4 (11747572_a_at) / Fold change /veh TMPRSS4 (11747572_a_at) / RFU HAMP (11756126_x_at) / Fold change /veh HAMP (11756126_x_at) / RFU RNFT2 (11725882_a_at) / Fold change /veh RNFT2 (11725882_a_at) / RFU NR4A2 (11747474_a_at) / Fold change /veh NR4A2 (11747474_a_at) / RFU ABCC12 (11746883_a_at) / Fold change /veh ABCC12 (11746883_a_at) / RFU TMEM136 (11760407_x_at) / Fold change /veh TMEM136 (11760407_x_at) / RFU CLDN22 /// WWC2 (11732394_at) / Fold change /veh CLDN22 /// WWC2 (11732394_at) / RFU HLA-DPB1 (11760878_x_at) / Fold change /veh HLA-DPB1 (11760878_x_at) / RFU SPINT1 (11716480_a_at) / Fold change /veh SPINT1 (11716480_a_at) / RFU GAP43 (11754022_s_at) / Fold change /veh GAP43 (11754022_s_at) / RFU A4GNT (11735810_at) / Fold change /veh A4GNT (11735810_at) / RFU PRB3 (11715151_x_at) / Fold change /veh PRB3 (11715151_x_at) / RFU TUBB4B (11761932_at) / Fold change /veh TUBB4B (11761932_at) / RFU CAPN14 (11732068_a_at) / Fold change /veh CAPN14 (11732068_a_at) / RFU TMCC2 (11721928_a_at) / Fold change /veh TMCC2 (11721928_a_at) / RFU IRGQ (11745062_a_at) / Fold change /veh IRGQ (11745062_a_at) / RFU FAM174B (11720279_a_at) / Fold change /veh FAM174B (11720279_a_at) / RFU TMPRSS4 (11748680_a_at) / Fold change /veh TMPRSS4 (11748680_a_at) / RFU FAM212B (11763350_a_at) / Fold change /veh FAM212B (11763350_a_at) / RFU PLEKHG5 (11743358_a_at) / Fold change /veh PLEKHG5 (11743358_a_at) / RFU ZSCAN30 (11745921_a_at) / Fold change /veh ZSCAN30 (11745921_a_at) / RFU CMKLR1 (11741424_a_at) / Fold change /veh CMKLR1 (11741424_a_at) / RFU LOC101060620 /// MAPK8IP1 (11723275_at) / Fold change /veh LOC101060620 /// MAPK8IP1 (11723275_at) / RFU SPTSSB (11747773_x_at) / Fold change /veh SPTSSB (11747773_x_at) / RFU PRSS12 (11739890_at) / Fold change /veh PRSS12 (11739890_at) / RFU BIN1 (11741810_x_at) / Fold change /veh BIN1 (11741810_x_at) / RFU WNT11 (11732464_a_at) / Fold change /veh WNT11 (11732464_a_at) / RFU C10orf10 (11716521_a_at) / Fold change /veh C10orf10 (11716521_a_at) / RFU C5orf56 (11738089_at) / Fold change /veh C5orf56 (11738089_at) / RFU CYB561 (11721691_x_at) / Fold change /veh CYB561 (11721691_x_at) / RFU ANKRD19P (11752326_a_at) / Fold change /veh ANKRD19P (11752326_a_at) / RFU OR2T12 /// OR2T33 /// OR2T8 (11738714_s_at) / Fold change /veh OR2T12 /// OR2T33 /// OR2T8 (11738714_s_at) / RFU VCAN (11748164_a_at) / Fold change /veh VCAN (11748164_a_at) / RFU JSRP1 (11732532_at) / Fold change /veh JSRP1 (11732532_at) / RFU KRTAP10-11 (11738290_x_at) / Fold change /veh KRTAP10-11 (11738290_x_at) / RFU MYO3A (11730013_a_at) / Fold change /veh MYO3A (11730013_a_at) / RFU EBF3 (11725865_a_at) / Fold change /veh EBF3 (11725865_a_at) / RFU CAMK2N1 (11719241_x_at) / Fold change /veh CAMK2N1 (11719241_x_at) / RFU C5orf56 (11738088_a_at) / Fold change /veh C5orf56 (11738088_a_at) / RFU OLFML3 (11715873_a_at) / Fold change /veh OLFML3 (11715873_a_at) / RFU LOC100653217 /// NTM (11731650_a_at) / Fold change /veh LOC100653217 /// NTM (11731650_a_at) / RFU MAPK11 (11762145_a_at) / Fold change /veh MAPK11 (11762145_a_at) / RFU FIZ1 (11724087_x_at) / Fold change /veh FIZ1 (11724087_x_at) / RFU OASL (11726364_x_at) / Fold change /veh OASL (11726364_x_at) / RFU SOX15 (11748057_x_at) / Fold change /veh SOX15 (11748057_x_at) / RFU CD79A (11719716_a_at) / Fold change /veh CD79A (11719716_a_at) / RFU HIST1H1D (11736915_at) / Fold change /veh HIST1H1D (11736915_at) / RFU CASKIN2 (11723855_a_at) / Fold change /veh CASKIN2 (11723855_a_at) / RFU LOC730098 (11760151_x_at) / Fold change /veh LOC730098 (11760151_x_at) / RFU OR4N2 (11742367_at) / Fold change /veh OR4N2 (11742367_at) / RFU PRRT2 (11749266_a_at) / Fold change /veh PRRT2 (11749266_a_at) / RFU SNX32 (11753110_a_at) / Fold change /veh SNX32 (11753110_a_at) / RFU CDHR5 (11726645_a_at) / Fold change /veh CDHR5 (11726645_a_at) / RFU RCAN1 (11760418_a_at) / Fold change /veh RCAN1 (11760418_a_at) / RFU FAM167A (11723789_a_at) / Fold change /veh FAM167A (11723789_a_at) / RFU FAM26E (11764081_at) / Fold change /veh FAM26E (11764081_at) / RFU ISYNA1 (11749810_s_at) / Fold change /veh ISYNA1 (11749810_s_at) / RFU ACY1 (11761880_at) / Fold change /veh ACY1 (11761880_at) / RFU 11764098_at / Fold change /veh 11764098_at / RFU SAMD14 (11745864_x_at) / Fold change /veh SAMD14 (11745864_x_at) / RFU NPB (11741838_a_at) / Fold change /veh NPB (11741838_a_at) / RFU TMPRSS6 (11731388_a_at) / Fold change /veh TMPRSS6 (11731388_a_at) / RFU KRTAP10-2 (11738614_at) / Fold change /veh KRTAP10-2 (11738614_at) / RFU ARHGAP8 /// PRR5-ARHGAP8 (11727945_x_at) / Fold change /veh ARHGAP8 /// PRR5-ARHGAP8 (11727945_x_at) / RFU KRTAP5-7 /// NADSYN1 (11734609_at) / Fold change /veh KRTAP5-7 /// NADSYN1 (11734609_at) / RFU RASL12 (11751679_a_at) / Fold change /veh RASL12 (11751679_a_at) / RFU CDKN2B (11736163_a_at) / Fold change /veh CDKN2B (11736163_a_at) / RFU PRF1 (11729649_at) / Fold change /veh PRF1 (11729649_at) / RFU, ZNF638 /// ZNF638-IT1 / Fold change vs veh, ZNF638 /// ZNF638-IT1 / RFU, PANK3 / Fold change vs veh, PANK3 / RFU, SH3YL1 / Fold change vs veh, SH3YL1 / RFU, ZEB2 / Fold change vs veh, ZEB2 / RFU, NRIP1 / Fold change vs veh, NRIP1 / RFU, PTTG1IP / Fold change vs veh, PTTG1IP / RFU, CAPN2 / Fold change vs veh, CAPN2 / RFU, MED14 / Fold change vs veh, MED14 / RFU, SNORA58 / Fold change vs veh, SNORA58 / RFU, C1orf63 / Fold change vs veh, C1orf63 / RFU, LRRFIP1 / Fold change vs veh, LRRFIP1 / RFU, NDUFAF7 / Fold change vs veh, NDUFAF7 / RFU, SLC12A2 / Fold change vs veh, SLC12A2 / RFU, IBTK / Fold change vs veh, IBTK / RFU, ESF1 / Fold change vs veh, ESF1 / Fold change vs veh, TMEM50B / RFU, TAOK1 / Fold change vs veh, TAOK1 / RFU, ACBD3 / Fold change vs veh, ACBD3 / RFU, TMA16 / Fold change vs veh, TMA16 / RFU, RWDD3 / Fold change vs veh, RWDD3 / RFU, BCAT1 / Fold change vs veh, BCAT1 / RFU, EDEM3 / Fold change vs veh, EDEM3 / RFU, TMEM33 / Fold change vs veh, TMEM33 / RFU, WDR75 / Fold change vs veh, WDR75 / RFU, AHCTF1 / Fold change vs veh, AHCTF1 / RFU, TFRC / Fold change vs veh, TFRC / RFU, ZDHHC17 / Fold change vs veh, ZDHHC17 / RFU, NOM1 / Fold change vs veh, NOM1 / RFU, ARL8B / Fold change vs veh, ARL8B / RFU, ZBTB11 / Fold change vs veh, ZBTB11 / RFU, TAMM41 / Fold change vs veh, TAMM41 / RFU, KIAA1704 /// LOC100996395 / Fold change vs veh, KIAA1704 /// LOC100996395 / RFU, ING1 / Fold change vs veh, ING1 / RFU, TRMT61B / Fold change vs veh, TRMT61B / RFU, FUBP3 / Fold change vs veh, FUBP3 / RFU, TP53 / Fold change vs veh, TP53 / RFU, TNKS2 / Fold change vs veh, TNKS2 / RFU, ZFP14 / Fold change vs veh, ZFP14 / RFU, ACTR2 / Fold change vs veh, ACTR2 / RFU, PPP3R1 / Fold change vs veh, PPP3R1 / RFU, PIK3R1 / Fold change vs veh, PIK3R1 / RFU, HNRNPA1 / Fold change vs veh, HNRNPA1 / RFU, RNF170 / Fold change vs veh, RNF170 / RFU, ZNF28 / Fold change vs veh, ZNF28 / RFU, RNGTT / Fold change vs veh, RNGTT / RFU, OGT / Fold change vs veh, OGT / RFU, BRD1 / Fold change vs veh, BRD1 / RFU, MARS / Fold change vs veh, MARS / RFU, ZNF655 / Fold change vs veh, ZNF655 / RFU, FAHD1 / Fold change vs veh, FAHD1 / RFU, BDP1 / Fold change vs veh, BDP1 / RFU, LRRCC1 / Fold change vs veh, LRRCC1 / RFU, ARID1A / Fold change vs veh, ARID1A / RFU, ZNF146 / Fold change vs veh, ZNF146 / RFU, ZNF330 / Fold change vs veh, ZNF330 / RFU, GPN3 / Fold change vs veh, GPN3 / RFU, C9orf123 / Fold change vs veh, C9orf123 / RFU, N4BP2L2 / Fold change vs veh, N4BP2L2 / RFU, ARFIP1 / Fold change vs veh, ARFIP1 / RFU, FAM179B / Fold change vs veh, FAM179B / RFU, BCL10 / Fold change vs veh, BCL10 / RFU, UHRF1BP1L / Fold change vs veh, UHRF1BP1L / RFU, BET1 / Fold change vs veh, BET1 / RFU, CNOT2 / Fold change vs veh, CNOT2 / RFU, ZNF268 / Fold change vs veh, ZNF268 / Fold change vs veh, ZNF507 / RFU, DGCR2 / Fold change vs veh, DGCR2 / RFU, WDSUB1 / Fold change vs veh, WDSUB1 / Fold change vs veh, HSP90B1 /// MIR3652 / RFU, ADSS / Fold change vs veh, ADSS / RFU, GK / Fold change vs veh, GK / RFU, ZNF148 / Fold change vs veh, ZNF148 / RFU, TAF9 / Fold change vs veh, TAF9 / RFU, SLC1A5 / Fold change vs veh, SLC1A5 / RFU, SLMO2 / Fold change vs veh, SLMO2 / RFU, ABCC4 / Fold change vs veh, ABCC4 / RFU, LOC101060439 /// RAP1B / Fold change vs veh, LOC101060439 /// RAP1B / RFU, RFX7 / Fold change vs veh, RFX7 / RFU, GTPBP10 / Fold change vs veh, GTPBP10 / RFU, CNEP1R1 / Fold change vs veh, CNEP1R1 / RFU, BIVM-ERCC5 /// ERCC5 / Fold change vs veh, BIVM-ERCC5 /// ERCC5 / RFU, ILF3 / Fold change vs veh, ILF3 / RFU 11762660_at / Fold change /veh 11762660_at / RFU VCAN (11757783_s_at) / Fold change /veh VCAN (11757783_s_at) / RFU DDX43 (11728927_at) / Fold change /veh DDX43 (11728927_at) / RFU KRT8 (11758188_x_at) / Fold change /veh KRT8 (11758188_x_at) / RFU NKD1 (11759106_at) / Fold change /veh NKD1 (11759106_at) / RFU SRD5A1 (11742802_a_at) / Fold change /veh SRD5A1 (11742802_a_at) / RFU TPSAB1 /// TPSB2 (11721975_s_at) / Fold change /veh TPSAB1 /// TPSB2 (11721975_s_at) / RFU GSTM3 (11746129_a_at) / Fold change /veh GSTM3 (11746129_a_at) / RFU IL23R (11737362_x_at) / Fold change /veh IL23R (11737362_x_at) / RFU TMEM51 (11727254_a_at) / Fold change /veh TMEM51 (11727254_a_at) / RFU PIWIL2 (11732686_x_at) / Fold change /veh PIWIL2 (11732686_x_at) / RFU ORM1 (11744905_x_at) / Fold change /veh ORM1 (11744905_x_at) / RFU CCDC152 (11743942_at) / Fold change /veh CCDC152 (11743942_at) / RFU ECM1 (11717891_a_at) / Fold change /veh ECM1 (11717891_a_at) / RFU IL23R (11748794_a_at) / Fold change /veh IL23R (11748794_a_at) / RFU TNFAIP8L3 (11732012_x_at) / Fold change /veh TNFAIP8L3 (11732012_x_at) / RFU MBOAT4 (11741988_at) / Fold change /veh MBOAT4 (11741988_at) / RFU 11764193_at / Fold change /veh 11764193_at / RFU TMEM53 (11763286_at) / Fold change /veh TMEM53 (11763286_at) / RFU MAGEB2 (11727129_at) / Fold change /veh MAGEB2 (11727129_at) / RFU TMEM200A (11744735_a_at) / Fold change /veh TMEM200A (11744735_a_at) / RFU CCDC152 (11751479_a_at) / Fold change /veh CCDC152 (11751479_a_at) / RFU FAM211A (11726209_a_at) / Fold change /veh FAM211A (11726209_a_at) / RFU RGS16 (11746705_a_at) / Fold change /veh RGS16 (11746705_a_at) / RFU VCAN (11755009_s_at) / Fold change /veh VCAN (11755009_s_at) / RFU RHOB (11743442_s_at) / Fold change /veh RHOB (11743442_s_at) / RFU RGS16 (11720943_a_at) / Fold change /veh RGS16 (11720943_a_at) / RFU RGS16 (11720944_at) / Fold change /veh RGS16 (11720944_at) / RFU, VPS4B / Fold change vs veh, VPS4B / RFU, CREB1 / Fold change vs veh, CREB1 / RFU, DNAJC13 / Fold change vs veh, DNAJC13 / RFU, GNAQ / Fold change vs veh, GNAQ / RFU, CDK5R1 / Fold change vs veh, CDK5R1 / RFU, ZRANB3 / Fold change vs veh, ZRANB3 / RFU, CUL4A / Fold change vs veh, CUL4A / RFU, CCNY / Fold change vs veh, CCNY / RFU, UFL1 / Fold change vs veh, UFL1 / RFU, COG3 / Fold change vs veh, COG3 / RFU, DIAPH2 / Fold change vs veh, DIAPH2 / RFU, SKA2 / Fold change vs veh, SKA2 / RFU, AFF3 / Fold change vs veh, AFF3 / RFU, LMF1 / Fold change vs veh, LMF1 / RFU, IPO11 / Fold change vs veh, IPO11 / RFU, DFFB / Fold change vs veh, DFFB / RFU, FOXP1 / Fold change vs veh, FOXP1 / RFU, CARD8 / Fold change vs veh, CARD8 / RFU, STRN3 / Fold change vs veh, STRN3 / RFU, ADK / Fold change vs veh, ADK / RFU, RASSF2 / Fold change vs veh, RASSF2 / RFU, WIPF1 / Fold change vs veh, WIPF1 / RFU, LARP1B / Fold change vs veh, LARP1B / RFU, RASA1 / Fold change vs veh, RASA1 / RFU, RB1 / Fold change vs veh, RB1 / RFU, PPFIA1 / Fold change vs veh, PPFIA1 / RFU, MAT2A / Fold change vs veh, MAT2A / RFU, CCT5 / Fold change vs veh, CCT5 / RFU, WDR92 / Fold change vs veh, WDR92 / RFU, CUX1 / Fold change vs veh, CUX1 / RFU, TTC7A / Fold change vs veh, TTC7A / RFU, TMEM135 / Fold change vs veh, TMEM135 / RFU, DEPTOR / Fold change vs veh, DEPTOR / RFU, CPM / Fold change vs veh, CPM / RFU, DNAJB6 / Fold change vs veh, DNAJB6 / RFU, CACNA2D3 / Fold change vs veh, CACNA2D3 / RFU, DTX4 / Fold change vs veh, DTX4 / RFU, TFCP2 / Fold change vs veh, TFCP2 / RFU, GMCL1 /// GMCL1P1 / Fold change vs veh, GMCL1 /// GMCL1P1 / RFU, AEBP2 / Fold change vs veh, AEBP2 / RFU, SNHG1 /// SNORD22 /// SNORD25 /// SNORD26 /// SNORD27 /// SNORD28 /// SNORD29 /// SNORD31 / Fold change vs veh, SNHG1 /// SNORD22 /// SNORD25 /// SNORD26 /// SNORD27 /// SNORD28 /// SNORD29 /// SNORD31 / Fold change (Aza/veh), C12orf56 (ProbeSet 11735607_a_at) / Fold change (ACY-1035/veh), C12orf56 (ProbeSet 11735607_a_at) / Fold change (Aza/veh), FGFR1OP (ProbeSet 11751329_s_at) / Fold change (ACY-1035/veh), FGFR1OP (ProbeSet 11751329_s_at) / Fold change (Aza/veh), VPS36 (ProbeSet 11739960_a_at) / Fold change (ACY-1035/veh), VPS36 (ProbeSet 11739960_a_at) / RFU SYPL1 (11715823_x_at) / Fold change /veh SYPL1 (11715823_x_at) / RFU IGFBP7 (11715501_s_at) / Fold change /veh IGFBP7 (11715501_s_at) / RFU REEP3 (11722064_at) / Fold change /veh REEP3 (11722064_at) / RFU IGLL1 (11728026_x_at) / Fold change /veh IGLL1 (11728026_x_at): dose or concentration left out as unconfirmed
Conditions: ProbeSet 11730501_a_at; LIST D

Nc1ncn([C@@H]2O[C@H](CO)[C@@H](O)[C@H]2O)c(=O)n1 [azacitidine]
RFU, CACNA2D3: 122.12 RFU
